Reference: ChEMBL document CHEMBL1145821, “Dihydrofolate reductase mutant with exceptional resistance to methotrexate but not to trimetrexate” (J Med Chem, 2003)

Key:
Dihydrofolate reductase [1] = target: T1, Dihydrofolate reductase (Mus musculus, UniProt P00375); assay: Combined effect of active site mutation F31A and F34A on inhibitory effect for F31A/F34A murine dihydrofolate reductase (DHFR)
Dihydrofolate reductase [2] = target: T2, Dihydrofolate reductase (Mus musculus, UniProt P00375); assay: Inhibitory constant for F31A/F34A murine dihydrofolate reductase (DHFR)
T2 sequence (P00375 whole entry): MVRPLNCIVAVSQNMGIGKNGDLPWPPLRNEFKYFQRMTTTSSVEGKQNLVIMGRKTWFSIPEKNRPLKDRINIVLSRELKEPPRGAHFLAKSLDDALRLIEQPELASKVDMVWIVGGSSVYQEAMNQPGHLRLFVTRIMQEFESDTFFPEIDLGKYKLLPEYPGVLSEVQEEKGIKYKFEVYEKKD

Dihydrofolate reductase [3] = target: T1, Dihydrofolate reductase; assay: Combined effect of active site mutation F31A and F34A on inhibitory effect for murine Wild-type dihydrofolate reductase (DHFR)
[4] = target: T3, Dihydrofolate reductase (Mus musculus) (UniProt P00375)
T3 sequence (whole entry): T2 sequence (P00375 whole entry)

Dihydrofolate reductase [5] = target: T2, Dihydrofolate reductase; assay: Inhibitory constant for murine Wild-type dihydrofolate reductase (DHFR)

Ki·kcat/Km (Dihydrofolate reductase [1]) [s⁻¹] | Ki (Dihydrofolate reductase [2]) [nM] | Ki·kcat/Km (Dihydrofolate reductase [3]) [s⁻¹] | Kimut/Kiwt [4] | Ki (Dihydrofolate reductase [5]) [nM] | SMILES
0.112 | 212 | 0.00126 | 4410 |  | CN(Cc1cnc2nc(N)nc(N)c2n1)c1ccc(C(=O)NC(CCC(=O)NCCCCCCCCCCCCNC(=O)CCC(NC(=O)c2ccc(N(C)Cc3cnc4nc(N)nc(N)c4n3)cc2)C(=O)O)C(=O)O)cc1 (centres undefined)
0.00043 | 0.81 | 0.00158 | 13.5 | 0.06 | COc1cc(NCc2ccc3nc(N)nc(N)c3c2C)cc(OC)c1OC [TRIMETREXATE]
